The text below walks through data of patent publication US20240360144A1, “PYRAZOLOPYRIMIDINE ESTER COMPOUND” (Shanghai Maius Pharmaceutical Co. Ltd., priority 2021, published 2024).

This data set in a line: Pharmacokinetic assays of compounds after oral gavage administration to rats. The settings on record: for AUC as percentage of that of 4-AAM administered at the same molar amount: relative to 4-AAM directly administered. Set-up: AUMC(0-t) / AUMC(0-∞): unit not given here. The format is in vivo, male SD rats. The method, then: Example 13: Pharmacokinetic Assays of Compounds
Instruments: ultra high performance liquid chromatography (Acquity UPLC, Waters) system; triple quadrupole mass spectrometer (Qtrap 5500, Sciex); high-speed refrigerated centrifuge (5430R, Eppendorf).
Chromatography Conditions: Column: Waters BEH C18 2.1×50 mm ([…]); Column Temperature: 45° C.; Mobile Phase: 0.1% aqueous solution of formic acid (A)/acetonitrile; Gradient: see Table 2 below: […]
Mass Spectrometry Condition: Mode: positive ion multiple reaction monitoring (MRM); Curtain Gas: 45 psi; Gas 1: 45 psi; Gas 2: 45 psi; Ion Source Temperature: 500° C.; Ion Source Voltage: 5000 V.
Experimental Animals: male SD rats, weighing 200-240 grams, fasting overnight before experiments.
Each suspension is prepared before administration.
Each sample was placed in an ice bath, centrifuged for plasma collection, frozen and stored.
Plasma Drug Concentration Data and Calculation of Pharmacokinetic Parameters:
Plasma drug concentration data was processed using MultiQuan 3.0 (Sciex), and pharmacokinetic parameters were calculated using the DAS 2.0 software. Plasma drug concentrations were measured in ug/L.

Where [1] appears, read: male SD rats, oral gavage, 30.0 mg/kg, suspension in 0.5% CMC-Na, plasma.

Molecules are shown by their SMILES. Like-named read-outs stand apart in the source and are kept apart here.

Consider `C=CC(=O)N1CCC[C@@H](n2nc(-c3ccc(Oc4ccccc4)cc3)c3c(NC(=O)OC(C)C)ncnc32)C1` [Compound 1], for which, under setting [1], the “AUC(0-t)” value stood at 1038.6 µg·h/L, the “AUC(0-∞)” value was 1059.6 µg·h/L, the “AUMC(0-t)” value is given as 2950.4 and the “AUMC(0-∞)” value is 3200.9. Besides, under setting [1], the CLz/F is 28.3 L/h/kg, the Cmax was 257.2 µg/L, the “MRT(0-t)” value is given as 2.8 h and the “MRT(0-∞)” value is on record as 3.0 h. Moreover, under setting [1], the Tmax was found to be 1.0 h, the “VRT(0-t)” value is listed as 4.6 h^2, the “VRT(0-∞)” value is 6.3 h^2 and the t½z is recorded as 1.7 h. Also, where the note is “rats, oral gavage”, the mean retention time was determined as 2.8 h and the “time to peak concentration” value is given as 1 h. For the same compound, the “AUC compared with 4-AAM administered at the same molar amount” value (from here on “AUC compared with 4-AAM administered”) (rats, oral gavage, in words) is “much greater AUC”.

Consider `C=CC(=O)N1CCC[C@@H](n2nc(-c3ccc(Oc4ccccc4)cc3)c3c(NC(=O)OCCC)ncnc32)C1` [Compound 2], for which, under setting [1], the “AUC(0-t)” value was found to be 663.0 µg·h/L, the “AUC(0-∞)” value came to 706.3 µg·h/L, the “AUMC(0-t)” value was 2844.3 and the “AUMC(0-∞)” value was found to be 3495.04. Moreover, under setting [1], the CLz/F was 42.5 L/h/kg, the Cmax came to 111.0 µg/L, the “MRT(0-t)” value was found to be 4.29 h and the “MRT(0-∞)” value amounted to 4.9 h. Besides, under setting [1], the time of peak concentration (Tmax) was 2.0 h, the “VRT(0-t)” value is recorded as 7.2 h^2, the “VRT(0-∞)” value is 13.5 h^2 and the t½z is on record as 2.338 h. Moreover, where the note is “rats, oral gavage”, the mean retention time turned out to be 4.3 h, the “time to peak concentration” value was 2 h and the “AUC as percentage of that of 4-AAM administered at the same molar amount” value (shortened to “AUC as percentage”) worked out at 88%.

For the compound `C=CC(=O)N1CCC[C@@H](n2nc(-c3ccc(Oc4ccccc4)cc3)c3c(NC(=O)OCCCC)ncnc32)C1` [Compound 3], under setting [1], the “AUC(0-t)” value came out at 1366.7 µg·h/L, the “AUC(0-∞)” value was 1375.6 µg·h/L, the “AUMC(0-t)” value is recorded as 3939.9 and the “AUMC(0-∞)” value was 4052.0. Moreover, under setting [1], the CLz/F amounted to 21.8 L/h/kg, the peak concentration (Cmax) came to 304.4 µg/L, the “MRT(0-t)” value was found to be 2.9 h and the “MRT(0-∞)” value was found to be 2.9 h. Under setting [1], the Tmax worked out at 2.0 h, the “VRT(0-t)” value was 3.3 h^2, the “VRT(0-∞)” value is 3.8 h^2 and the t½z came to 1.3 h. In addition, where the note is “rats, after oral absorption, in words”, the “hydrolysis in the blood plasma into the 4-amino active metabolite (4-AAM)” value is recorded as “highest rate”. Besides, under “rats, oral gavage”, the mean retention time amounted to 2.9 h, the “time to peak concentration” value worked out at 2 h and the “AUC as percentage” value amounted to 180%. Where the note is “rats, oral gavage, in words”, the “AUC compared with 4-AAM administered” value is “much greater AUC”.

Turning to `C=CC(=O)N1CCC[C@@H](n2nc(-c3ccc(Oc4ccccc4)cc3)c3c(N)ncnc32)C1` [Compound 4-AAM, 1-[(3R)-3-[4-amino-3-(4-phenoxyphenyl)-1H-pyrazolo[3,4-D]pyrimidin-1-yl]-1-piperidinyl]-2-propen-1-one, reference compound], under setting [1], the “AUMC(0-t)” value stood at 1316.6, the “AUMC(0-∞)” value came to 2805.6, the “VRT(0-t)” value is on record as 2.0 h^2 and the “VRT(0-∞)” value was 47.6 h^2. Besides, the t½z under setting [1] was 8.9 h. The compound also yielded an AUC(0-inf) (rat, male SD rats, oral gavage, 30.0 mg/kg, suspension in 0.5% CMC-Na, plasma) of 822 ng·h/mL. For the same compound, the AUC(0-t) (rat, male SD rats, oral gavage, 30.0 mg/kg, suspension in 0.5% CMC-Na, plasma, read-out: AUC(0-t)) was determined as 758 µg·h/L. For the setting “rat, male SD rats, oral gavage, 30.0 mg/kg, suspension in 0.5% CMC-Na, plasma, read-out: Cmax”, the Cmax worked out at 312 µg/L. Also, the MRT last (rat, male SD rats, oral gavage, 30.0 mg/kg, suspension in 0.5% CMC-Na, plasma, read-out: MRT(0-t)) turned out to be 1.7 h. In addition, for the setting “rat, male SD rats, oral gavage, 30.0 mg/kg, suspension in 0.5% CMC-Na, plasma, read-out: MRT(0-∞)”, the MRT inf was 3.4 h.

On to `C=CC(=O)N1CCC[C@@H](n2nc(-c3ccc(Oc4ccccc4)cc3)c3c(NC(=O)OCC(C)C)ncnc32)C1` [Compound 4], for which, under setting [1], the exposure AUC(0-t) came to 964.1 µg·h/L, the “AUC(0-∞)” value is 976.4 µg·h/L, the “AUMC(0-t)” value worked out at 2405.5 and the “AUMC(0-∞)” value amounted to 2586.7. Further, under setting [1], the CLz/F is recorded as 30.7 L/h/kg, the Cmax was 256.7 µg/L, the “MRT(0-t)” value was 2.5 h and the “MRT(0-∞)” value was 2.6 h. Under setting [1], the Tmax is listed as 2.0 h, the “VRT(0-t)” value is recorded as 2.9 h^2, the “VRT(0-∞)” value was 4.8 h^2 and the t½z is recorded as 2.5 h. Further, under “rats, oral gavage”, the mean retention time stood at 2.5 h, the “time to peak concentration” value is 2 h and the “AUC as percentage” value is 127%. In addition, the “AUC compared with 4-AAM administered” value (rats, oral gavage, in words) is “much greater AUC”.

In the case of `C=CC(=O)N1CCC[C@@H](n2nc(-c3ccc(Oc4ccccc4)cc3)c3c(NC(=O)OCCCCCC)ncnc32)C1` [Compound 5], under setting [1], the “AUC(0-t)” value came out at 584.0 µg·h/L, the “AUC(0-∞)” value came out at 587.1 µg·h/L, the “AUMC(0-t)” value is listed as 1659.5 and the “AUMC(0-∞)” value was 1696.7. Moreover, under setting [1], the CLz/F came to 51.1 L/h/kg, the Cmax was found to be 143.9 µg/L, the “MRT(0-t)” value is reported as 2.8 h and the “MRT(0-∞)” value amounted to 2.9 h. Also, under setting [1], the Tmax stood at 2.0 h, the “VRT(0-t)” value came out at 3.0 h^2, the “VRT(0-∞)” value turned out to be 3.5 h^2 and the t½z is 1.3 h.

The AUC(0-t) is the area under the concentration-time curve up to a stated or last time point. As a reminder, the Cmax is the maximum level reached in the sampled fluid or tissue. Broadly, the Tmax is the time from dosing to the highest level. As a reminder, the AUC(0-inf) is the area under the concentration-time curve extrapolated to infinity.
